Laboratory results taken from patent publication US20250136607A1 (REGOR PHARMACEUTICALS, INC., priority 2021, published 2025).
Read-outs that look alike come from different tables or passages of the source.

How the values were obtained:
[1] = system: Citrullinated Histone H3 in dHL-60 cells (differentiated HL-60); assay: dHL-60 Cit-H3 ELISA assay; assay type: cell-based, human; conditions: read-out: Average IC50 Abs
Method: Cell culture: HL-60 cells were grown in IMDM+20% FBS+1% PS. The suspension cells were split into 1:5 with fresh media every 2-3 days to maintain cell density between 1×10^5 to 1×10^6 viable cells/mL. HL-60 cells differentiation: HL-60 cells were diluted to 1×10^5 cells/mL and differentiated into neutrophil-like cells with 100 mM DMF treatment for 72 hours in flask at 37° C., 5% CO2. dHL-60 Cells plating: • 1) HL-60 cells were collected, and the plate was centrifuged at 1000 rpm for 5 min. • 2) The HL-60 cells were diluted to 1.25×10^6 cells/mL and plated into a 96-well plate with 80 μL/well (i.e., 1×10^5/well). The plate was then incubated in the incubator (5% CO2, 37° C.) for 30 min to allow cells to adhere. Compound treatment: • 1) Preparation of compound serial dilution (source plate 500×, final DMSO concentration: 0.2%): briefly, compounds were dissolved in 100% DMSO to a concentration of 20 mM (the stock solution) and a 3-fold serial dilution with 8-point doses was performed. • 2) A 10× compound solution was pipetted up and down; and 10 μL/well of compounds were added into each well and incubated for 30 min. Stimulation with 25 μM A23187: • 1) A solution of A23187 (250 μM) in complete IMDM (IMDM+10% FBS+1% PS) containing 150 U/mL S7 Nuclease was prepared. The obtained solution was added 10 μL/well into each well and incubated for 3 h in the incubator (5% CO2, 37° C.). • 2) The dHL-60 cells treated with 10 μL/well complete IMDM without A23187 worked as negative control. Sample preparation: • 1) EDTA (0.5 M, 2 μL/well) were added to all the wells to stop the reaction. • 2) The plate was centrifuged at 1000 rpm for 5 min to collect supernatant. • 3) The supernatant was then diluted at least 1:2 before adding to the ELISA plate for citrullinated H3 analysis.
The standard was reconstituted with 2 mL of Assay buffer to 500 ng/mL. The reconstituted standard was relatively unstable at 4° C. and should be used within 3 hr after reconstitution.
• 1) 100 μL of the standards or diluted samples were added to the wells on the ELISA plate. • 2) The plate was covered with Cover Sheet and incubated for 2 h at room temperaturert on an orbital shaker.
On the day of the assay, the reagent was thawed at room temperaturert. For one plate, 1.2 mL of HRP Conjugate were diluted into 10.8 mL of assay buffer. A diluted HRP Conjugate was prepared shortly before use.
• 1) The wells were empties and rinsed four times with 1× wash buffer with 300 μL/well (Low speed). The plate was inverted between wash steps to empty the plate. After the last wash, the inverted plate was gently tapped on absorbent paper to remove the residual wash buffer. • 2) 100 μL of the HRP Conjugate working solution were added to each well of the plate. • 3) The plate was covered with cover sheet and incubated for 1 h at RT on an orbital shaker.
• 1) The wells were empties and rinsed four times with 1× wash buffer with 300 μL/well (low speed). The plate was inverted between wash steps to empty the plate. […] 100 uL of HRP STOP solution were added to each well of the plate.
• 1) Wipe the bottom of the plate with a clean tissue to remove fingerprints, dirt, etc. • 2) Read the plate at a wavelength of 450 nm.
The percent (%) inhibition at each concentration of compound was calculated based on and relative to the signal in the HPE and ZPE wells contained within each assay plate. The HPE wells worked as […], and the ZPE wells didn't contain any compound but rather DMSO (final concentration=0.1%) as […]. The concentrations and % inhibition values for tested compounds were plotted and the concentration of compound required for 50% inhibition (IC50) was determined with a Four-parameter logistic dose response equation. The endpoint value (IC50) for the reference peptide/compound was evaluated in each experiment as a quality control measure. If the endpoint value is within 3-fold of the expected value then the experiment is deemed acceptable. […]

[2] = target: Protein arginine deiminase 4 (PAD4) (Homo sapiens, UniProt Q9UM07); assay: PAD4 ammonia release assay; assay type: biochemical; conditions: for relative potency of separated isomers in the PAD4 biochemical assay: SFC-separated stereoisomer pairs
Protein arginine deiminase 4 (PAD4), sequence (Q9UM07 whole entry): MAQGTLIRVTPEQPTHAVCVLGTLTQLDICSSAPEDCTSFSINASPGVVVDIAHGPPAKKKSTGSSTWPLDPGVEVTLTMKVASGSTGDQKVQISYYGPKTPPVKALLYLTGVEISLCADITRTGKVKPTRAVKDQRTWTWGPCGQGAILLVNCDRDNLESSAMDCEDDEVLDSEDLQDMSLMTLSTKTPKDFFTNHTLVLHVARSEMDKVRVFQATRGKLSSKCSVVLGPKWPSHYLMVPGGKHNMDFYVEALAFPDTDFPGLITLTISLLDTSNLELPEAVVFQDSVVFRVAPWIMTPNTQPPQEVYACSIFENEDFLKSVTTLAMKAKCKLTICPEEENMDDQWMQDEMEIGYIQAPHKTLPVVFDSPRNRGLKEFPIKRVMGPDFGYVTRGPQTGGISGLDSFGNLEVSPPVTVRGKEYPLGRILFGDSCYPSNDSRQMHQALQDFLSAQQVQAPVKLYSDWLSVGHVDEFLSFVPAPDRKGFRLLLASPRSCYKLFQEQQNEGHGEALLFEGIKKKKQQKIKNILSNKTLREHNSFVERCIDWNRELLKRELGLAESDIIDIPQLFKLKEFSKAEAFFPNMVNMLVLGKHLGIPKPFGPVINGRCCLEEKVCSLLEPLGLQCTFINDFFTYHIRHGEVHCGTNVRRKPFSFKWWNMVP
In short: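 PAD4 (20 nM, 2× working solution) was preincubated with compound for 15 min at RT in 100 mM HEPES pH 8.0, 2 mM CaCl2, 50 mM NaCl, 0.1 mM TCEP, BSA at 1.25% DMSO. BAEE (600 μM, 2× mix) reacted 60 min, then OPA/DTT/EDTA detection for 120 min. IC50 came from a 4-parameter fit, normalized to 50 μM reference (100%) and DMSO (0%).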

[3] = Homo sapiens, HL-60, 3 h, stimulation with 25 μM A23187 for 3 h
[4] = PAD4 ammonia release assay, BAEE substrate, 60 min at RT, read-out: Average IC50 Abs
[5] = Homo sapiens, HL-60, stimulation with 25 μM A23187 for 3 h

IC50 [1, 3] [nM]	IC50 [2, 4] [nM]	relative potency of separated isomers in the PAD4 biochemical assay [2]	IC50 ([2]; PAD4 activity comparison, read-out: PAD4 Ammonia assay IC50) [nM]	IC50 ([1]; stimulation with 25 μM A23187 for 3 h) [nM]	Compound	IC50 [1, 5] [nM]
≤ 100	100 to 500	more potent than Example 105	–	–	CC(C)[C@H]1CNc2cccc3cc(-c4nc5cc(C(=O)N6C[C@H]7CC[C@@H]6[C@@H]7N)cc(F)c5n4C)n1c23 [Example 106, ((1R,4R,7R)-7-amino-2-azabicyclo[2.2.1]heptan-2-yl)(7-fluoro-2-((S)-3-isopropyl-2,3-dihydro-1H-pyrrolo[1,2,3-de]quinoxalin-5-yl)-1-methyl-1H-benzo[d]imidazol-5-yl)methanone]	–
≤ 100	100 to 500	–	130	–	CC(C)C1CNc2cccc3cc(-c4nc5cc(C(=O)N6C[C@H]7CC[C@@H]6[C@@H]7N)cc(F)c5n4C)n1c23 (stereo partly drawn) [Example 104, ((1R,4R,7R)-7-amino-2-azabicyclo[2.2.1]heptan-2-yl)(7-fluoro-2-(3-isopropyl-2,3-dihydro-1H-pyrrolo[1,2,3-de]quinoxalin-5-yl)-1-methyl-1H-benzo[d]imidazol-5-yl)methanone]	–
100 to 500	100 to 500	–	–	–	CCN1CCc2c(ccc3cc(-c4nc5cc(C(=O)N6C[C@H]7CC[C@@H]6[C@@H]7N)cc(F)c5n4C)n(CC4CC4)c23)C1 [Example 153, ((1R,4R,7R)-7-amino-2-azabicyclo[2.2.1]heptan-2-yl)(2-(1-(cyclopropylmethyl)-7-ethyl-6,7,8,9-tetrahydro-1H-pyrrolo[2,3-f]isoquinolin-2-yl)-7-fluoro-1-methyl-1H-benzo[d]imidazol-5-yl)methanone]	–
–	500 to 5000	–	–	> 5000	CCC1CN(CCCO)c2cccc3cc(-c4nc5cc(C(=O)N6C[C@H](N)C[C@@H](F)C6)cc(OC)c5n4C)n1c23 (single isomer, unassigned) [Example 81]	–
100 to 500	100 to 500	–	–	–	CC(C)C1CN(C)c2cccc3cc(-c4nc5cc(C(=O)N6C[C@H]7CC[C@@H]6[C@@H]7N)cc(F)c5n4C)n1c23 (stereo partly drawn) [Example 107, ((1R,4R,7R)-7-amino-2-azabicyclo[2.2.1]heptan-2-yl)(7-fluoro-2-(3-isopropyl-1-methyl-2,3-dihydro-1H-pyrrolo[1,2,3-de]quinoxalin-5-yl)-1-methyl-1H-benzo[d]imidazol-5-yl)methanone]	–
100 to 500	100 to 500	–	–	–	COc1cc(C(=O)N2C[C@H](N)C[C@@H](F)C2)cc2nc(-c3cc4cccc5c4n3CCN5CCCO)n(CC3CCC3)c12 [Example 48, ((3R,5R)-3-amino-5-fluoropiperidin-1-yl)(1-(cyclobutylmethyl)-2-(1-(3-hydroxypropyl)-2,3-dihydro-1H-pyrrolo[1,2,3-de]quinoxalin-5-yl)-7-methoxy-1H-benzo[d]imidazol-5-yl)methanone]	–
500 to 5000	≤ 100	–	–	–	CCn1cc(Cn2c(-c3cc4cccc5c4n3CCN5CCCO)nc3cc(C(=O)N4C[C@H](N)C[C@@H](F)C4)cc(F)c32)cn1 [Example 38, ((3R,5R)-3-amino-5-fluoropiperidin-1-yl)(1-((1-ethyl-1H-pyrazol-4-yl)methyl)-7-fluoro-2-(1-(3-hydroxypropyl)-2,3-dihydro-1H-pyrrolo[1,2,3-de]quinoxalin-5-yl)-1H-benzo[d]imidazol-5-yl)methanone]	–
≤ 100	≤ 100	more potent	–	–	CC[C@H]1CN(CCCO)c2cccc3cc(-c4nc5cc(C(=O)N6C[C@H]7CC[C@@H]6[C@@H]7N)cc(F)c5n4C)n1c23 [Example 71, ((1R,4R,7R)-7-amino-2-azabicyclo[2.2.1]heptan-2-yl)(2-((S)-3-ethyl-1-(3-hydroxypropyl)-2,3-dihydro-1H-pyrrolo[1,2,3-de]quinoxalin-5-yl)-7-fluoro-1-methyl-1H-benzo[d]imidazol-5-yl)methanone]	–
100 to 500	100 to 500	–	–	–	CCn1c(-c2cc3cccc4c3n2C(C)CN4CCCO)nc2cc(C(=O)N3C[C@H]4CC[C@@H]3[C@@H]4N)cc(OC)c21 (stereo partly drawn) [Example 68, ((1R,4R,7R)-7-amino-2-azabicyclo[2.2.1]heptan-2-yl)(1-ethyl-2-(1-(3-hydroxypropyl)-3-methyl-2,3-dihydro-1H-pyrrolo[1,2,3-de]quinoxalin-5-yl)-7-methoxy-1H-benzo[d]imidazol-5-yl)methanone]	–
500 to 5000	≤ 100	–	–	–	Cn1cc(Cn2c(-c3cc4cccc5c4n3CCN5CCCO)nc3cc(C(=O)N4C[C@@H](N)C[C@H](F)C4)cc(F)c32)cn1 [Example 46, ((3S,5S)-3-amino-5-fluoropiperidin-1-yl)(7-fluoro-2-(1-(3-hydroxypropyl)-2,3-dihydro-1H-pyrrolo[1,2,3-de]quinoxalin-5-yl)-1-((1-methyl-1H-pyrazol-4-yl)methyl)-1H-benzo[d]imidazol-5-yl)methanone]	–
≤ 100	≤ 100	–	–	–	CC(=O)N1CCc2c(ccc3cc(-c4nc5cc(C(=O)N6C[C@H]7CC[C@@H]6[C@@H]7N)cc(F)c5n4C)n(CC4CC4)c23)C1 [Example 156, 1-(2-(5-((1R,4R,7R)-7-amino-2-azabicyclo[2.2.1]heptane-2-carbonyl)-7-fluoro-1-methyl-1H-benzo[d]imidazol-2-yl)-1-(cyclopropylmethyl)-1,6,8,9-tetrahydro-7H-pyrrolo[2,3-f]isoquinolin-7-yl)ethan-1-one]	–
≤ 100	100 to 500	–	–	–	CCC1CN(CCCO)c2cccc3cc(-c4nc5cc(C(=O)N6C[C@H]7CC[C@@H]6[C@@H]7N)cc(OC)c5n4C)n1c23 (stereo partly drawn) [Example 85, ((1R,4R,7R)-7-amino-2-azabicyclo[2.2.1]heptan-2-yl)(2-(3-ethyl-1-(3-hydroxypropyl)-2,3-dihydro-1H-pyrrolo[1,2,3-de]quinoxalin-5-yl)-7-methoxy-1-methyl-1H-benzo[d]imidazol-5-yl)methanone]	–

Compound	IC50 [1, 3] [nM]	IC50 [2, 4] [nM]	relative potency of separated isomers in the PAD4 biochemical assay [2]	IC50 ([2]; PAD4 activity comparison, read-out: PAD4 Ammonia assay IC50) [nM]	IC50 ([1]; stimulation with 25 μM A23187 for 3 h) [nM]	IC50 [1, 5] [nM]
COc1cc(C(=O)N2CCC[C@@H](N)C2)cc2nc(-c3cc4cccc5c4n3CCN5CCO)n(C)c12 [Example 10, (R)-(3-aminopiperidin-1-yl)(2-(1-(2-hydroxyethyl)-2,3-dihydro-1H-pyrrolo[1,2,3-de]quinoxalin-5-yl)-7-methoxy-1-methyl-1H-benzo[d]imidazol-5-yl)methanone]	–	500 to 5000	–	–	–	500 to 5000
CC(C)C1CN(CCCO)c2cccc3cc(-c4nc5cc(C(=O)N6C[C@H]7CC[C@@H]6[C@@H]7N)cc(F)c5n4C)n1c23 (stereo partly drawn) [Example 103, ((1R,4R,7R)-7-amino-2-azabicyclo[2.2.1]heptan-2-yl)(7-fluoro-2-(1-(3-hydroxypropyl)-3-isopropyl-2,3-dihydro-1H-pyrrolo[1,2,3-de]quinoxalin-5-yl)-1-methyl-1H-benzo[d]imidazol-5-yl)methanone]	–	100 to 500	–	–	–	≤ 100
